The species named for assay [1] is Homo sapiens. Nature of the assay: Binding affinity to CBP KIX domain H602C mutant (unknown origin) assessed as increase in binding affinity constant for c-Myb by fluorescence polarization tethering assay.
The species entered for assay [2] is Homo sapiens. In words: Binding affinity to CBP KIX domain H602C mutant (unknown origin) assessed as increase in binding affinity constant for phosphorylated KID by fluorescence polarization tethering assay. Background: In fluorescence polarisation assays a small probe gives low polarisation when free and higher when bound to something large.
The species entered for assay [3] is Homo sapiens. Nature of the assay: Binding affinity to CBP KIX domain H602C mutant (unknown origin) after 1 hr by Fluorescent polarization assay.
Assay [4] is filed under the species Homo sapiens. In words: Displacement of fluorescent-labelled pKID from CBP KIX domain H602C mutant (unknown origin) after 1 hr by Fluorescent polarization assay. Conditions: concentration not given here.
The species named for assay [5] is Homo sapiens. In words: Binding affinity to CBP KIX domain H602C mutant (unknown origin) assessed as increase in binding affinity constant for MLL by fluorescence polarization tethering assay.
The species named for assay [6] is Homo sapiens. In words: Binding affinity to CBP KIX domain N627C mutant (unknown origin) after 1 hr by Fluorescent polarization assay.
Assay [7] in a line: (§1) Displacement of fluorescent-labelled MLL from CBP KIX domain N627C mutant (unknown origin) after 1 hr by Fluorescent polarization assay. On the set-up: species or system Homo sapiens.
Assay [8] is filed under the species Homo sapiens. Described as §1.
The species entered for assay [9] is Homo sapiens. Nature of the assay: Displacement of fluorescent-labelled MLL from CBP KIX domain N627C mutant (unknown origin) at 250 uM after 1 hr by Fluorescent polarization assay.

Usually inhibition stands for the drop in the measured response relative to a control, in per cent. The IC50 is the midpoint of a concentration-inhibition curve. Read a high IC50 as weaker potency in that assay.

Turning to `CC(=O)Nc1ccc(Cl)c(NC(=O)NCCSSCCN(C)C)c1`, the fold change (FC) in the assay filed under Homo sapiens [1] was 9; in the assay listed under Homo sapiens [2], 6.5; in the assay listed under Homo sapiens [5], 9. The Activity in the assay filed under Homo sapiens [3] came out at 71%. In the assay filed under Homo sapiens [4], this compound returned an inhibition of 24%.
In the assay listed under Homo sapiens [6], `CN(C)CCSSCCC(=O)N1CCC(O)(c2ccc(Cl)c(C(F)(F)F)c2)CC1` registered an Activity of 67%. Besides, the IC50 in assay [7] was found to be 68 µM. Besides, the inhibition result in the assay listed under Homo sapiens [8] is “Dose-dependent effect”; in the assay filed under Homo sapiens [9], 44%.
In the assay listed under Homo sapiens [3], `CN(C)CCSSCCNC(=O)C1CCN(C(=O)c2ccccc2Nc2ccccc2)CC1` yielded an Activity of 15%. In the assay listed under Homo sapiens [4], the inhibition was 22%.
`COc1ccc2cc([C@H](C)C(=O)NCCSSCCN)ccc2c1` displayed an Activity in the assay filed under Homo sapiens [6] of 36%. The compound also came in with an inhibition in the assay filed under Homo sapiens [9] of 32%.
